Experimental data taken from patent publication US20060165743A1, “Method and device to control and condition the behavior of the varroa destructor mite in a beehive, or in other environment where bees reproduce” (Universita' Degli Studi Di Udine, priority 2002, published 2006).

Key:
Varroa destructor mite [1] = test: Activity test in artificial observation plates (treated wells vs solvent control wells, each with a bee larva); assay type: in vivo; conditions: for AVERAGE ACTIVITY TREATED: 6 observations in 30 min, 34° C., 75% RH, dark
Procedure: The activity of (±)-2-hydroxyhexanoic acid and of (±)-3-hydroxyhexanoic acid, dissolved in water, was tested in a plate 10 (FIG. 1). Each plate 10 consists of a parallelepiped of sodium-calcium glass with a 70×70 mm square base, and a height of 12 mm, in which four cylindrical wells 12a, 12b, are made, each with a diameter of 7 mm and a depth of 10 mm, similar in size to bee cells. The wells 12a, 12b are equidistant from the center. At the center of the plate 10 a Varroa destructor mite was placed, indicated by the number 11. To delimit the space in which the mite 11 could move, the plates 10 were closed with a cover element 15 consisting of a glass disk joined to a stainless steel spacer ring 17. Two opposite wells 12a of each plate 10 were treated with (±)-2-hydroxyhexanoic acid or with (±)-3-hydroxyhexanoic acid, dissolved in water; the other two wells 12b, on the contrary, were used as controls and were treated only with the solvent. In each individual well 12a, 12b of the plate 10 a bee larva 20 was then placed. The biological activity test on (±)-2-hydroxyhexanoic acid provides a first test during which 1 ng of (±)-2-hydroxyhexanoic acid is tested, a second test during which 10 ng of (±)-2-hydroxyhexanoic acid are tested and a third test during which 100 ng are tested and a fourth test during which 1000 ng are tested. The biological activity test on (±)-3-hydroxyhexanoic acid provides a first test during which 10 ng of (±)-3-hydroxyhexanoic acid are tested, a second test during which 100 ng of (±)-3-hydroxyhexanoic acid are tested, and a third test during which 1000 ng are tested. At the beginning of each test the Varroa destructor mite 11, in this case a female adult, is located at the center of each plate 10 with a thin brush; each plate 10 is then closed and transferred to a thermostatic chamber. Subsequently, the position of the mite 11 was monitored every 5 minutes for a total of 30 minutes, to a total of 6 observations. 20 plates were used for every test, with 4 repetitions, to a total of 80 plates. During the tests the temperature and relative humidity were kept respectively around 34° C. and 75%; the inside of the thermostatic chamber was kept dark. The action of the substances tested on the Varroa destructor mite was evaluated by calculating an average value for the treated wells 12a and the control wells 12b, equal to the average number of times in which the Varroa destructor mite was observed inside one or the other in the 6 observations made in the course of the 30 minutes of each test. The average values thus obtained are representative, with a certain approximation, of the time spent by the mite in the two types of well 12a, 12b. The attractiveness of a substance thus determines higher average values for the treated wells 12a with respect to those of the control wells 12b.

Varroa destructor mite [2] = test: Activity test in the beehive (cells with worker bee larvae near to opercolature); assay type: in vivo; conditions: 100 ng in 1 μl solvent per cell, 18 hours after treatment
Procedure: (±)-2-hydroxyhexanoic acid was also tested in the beehive, by applying, in the cells with worker bee larvae near to opercolature, a solution of 100 ng of (±)-2-hydroxyhexanoic acid dissolved in 1 μl of a suitable solvent. The infestation of such cells was compared with that of the control cells treated with the solvent alone: the cells used were examined 18 hours after treatment and the Varroa destructor mites present in the treated cells and in the control cells were counted.

SMILES	AVERAGE ACTIVITY TREATED (Varroa destructor mite [1]; 1 ng in treated wells)	AVERAGE ACTIVITY TREATED (Varroa destructor mite [1]; 10 ng in treated wells)	AVERAGE ACTIVITY TREATED (Varroa destructor mite [1]; 100 ng in treated wells)	AVERAGE ACTIVITY TREATED (Varroa destructor mite [1]; 1000 ng in treated wells)	Activity on / attractiveness to the Varroa destructor mite (infestation of treated wells vs control wells), in words (Varroa destructor mite [1]; dose 10 ng)	Activity on / attractiveness to the Varroa destructor mite (infestation of treated wells vs control wells), in words (Varroa destructor mite [1]; dose 100 ng)	Number of Varroa destructor mites per cell in treated cells vs non-treated cells, in words (Varroa destructor mite [2])	N. OF VARROA DESTRUCTOR MITE PER CELL TREATED, Average (Varroa destructor mite [2]; average of 5 replications)
CCCCC(O)C(=O)O (racemic) [(±)-2-hydroxyhexanoic acid]	22.3	31.8	34.7	23.0	active on and attractive to the Varroa destructor mite	active on and attractive to the Varroa destructor mite	significantly greater	0.60
CCCCCCC(O)C(=O)O (racemic) [(±)-2-hydroxyoctanoic acid, reference compound]			29.5			not found to be active		
CCCC(O)CC(=O)O (racemic) [(±)-3-hydroxyhexanoic acid]		24.5	36.8	23.3		active on and attractive to the Varroa destructor mite		
